According to US20160045505A1, “COMPOUNDS AND COMPOSITIONS FOR THE TREATMENT OF PARASITIC DISEASES” (NOVARTIS AG, priority 2013, published 2016):
Where two headings read alike, the source gives them in different places.

How the values were obtained:
[1] = tested on: Trypanosoma brucei Lister 427 strain, bloodstream form; test: Assay for proliferation of kinetoplastid parasite Trypanosoma brucei (Cell Titer Glo, 48 hours); type: cell-based; conditions: T. brucei Lister 427 bloodstream form, read-out: T. brucei EC50
Text: Assay for Proliferation of Kinetoplastid Parasite Trypanosoma brucei.
The proliferation is quantified by the addition of Cell Titer Glo (Promega®) a luminescent cell viability assay that measures the number of viable cells in culture based on the quantification of cellular ATP amount, which is an indicator of metabolically active cells.
The following assay illustrates the invention without in any way limiting the scope of the invention. This parasite proliferation assay measures the increase in parasite growth using an assay that measures ATP activity, Cell Titer Glo®.
Trypanosoma brucei Lister 427 strain is grown in HMI-9 Trypanosome media for T. brucei bloodstream form. 30 μl of HMI-9 media is dispensed into 384 well assay plates. 200 nl of compounds of the invention (in DMSO), including anti-trypanosome controls (Pentamidine and suramin), are then transferred into the assay plates, as well as DMSO alone to serve as a negative control for inhibition. Then 25 μl of a suspension of T. brucei culture in HMI-9 media is dispensed into the assay plates. The final concentration of parasites in culture corresponds to 1.7% of 0.5 uM ATP activity with Cell Titer Glo® in HMI-9 media. The plates are placed in a 37° C. incubator for 48 hours in an atmospheric environment containing 5% CO2. 40 μl of Cell Titer Glo® is dispensed into the plates. The plates are then read for luminescence. The percentage inhibition of 50%, EC50, is calculated for each compound.

[2] = tested on: Leishmania donovani axenic amastigote parasites; test: Leishmania donovani axenic amastigote proliferation assay (Cell TiterGlo luminescence, 2 day incubation); type: cell-based; conditions: read-out: L. donovani amastigotes EC50
[3] = tested on: L. donovani HU3 strain in mouse peritoneal macrophages; test: Assay for proliferation of Leishmania parasites in infected mouse peritoneal macrophages (SybrGreen staining, high-content imaging, 5 days); type: cell-based, Leishmania donovani; conditions: L. donovani in mouse peritoneal macrophages, read-out: L. donovani Macrophage EC50
[4] = tested on: Trypanosoma cruzi amastigotes (Tulahuen strain expressing Lac-Z) cultured in 3T3 fibroblast cells; test: microbe, parasite or virus in culture; type: cell-based; conditions: T. cruzi amastigotes in 3T3 fibroblast cells, read-out: T cruzi EC50
[5] = axenic amastigotes, inhibition of proliferation
[6] = Trypanosoma cruzi, TULAHUEN, Fibroblast, inhibition of proliferation
[7] = Trypanosoma brucei, inhibition of proliferation
[8] = Leishmania donovani, axenic amastigotes, inhibition of proliferation
[9] = Leishmania donovani, Peritoneal macrophage, inhibition of proliferation
[10] = Leishmania donovani, L. donovani axenic amastigotes
[11] = Trypanosoma cruzi, TULAHUEN, Fibroblast
[12] = Leishmania donovani, Peritoneal macrophage

Compound | EC50 [4, 6] | EC50 [1, 7] | EC50 [2, 8] | EC50 [3, 9] | further results
Cc1nc(C)c(C(=O)Nc2ccc(F)c(-c3cn4cc(NC(=O)C5CCCCO5)cnc4n3)c2)o1 (single isomer, unassigned) [Compound 184] | 565 nM | – | – | – | EC50 ([1]; inhibition of proliferation): 175 nM; EC50 [2, 5]: 146 nM; EC50 ([3]; inhibition of proliferation): 333 nM
Cc1nc(C)c(C(=O)Nc2ccc(F)c(-c3cn4cc(NC(=O)C5CCCCO5)cnc4n3)c2)o1 (single isomer, unassigned) [Compound 185] | – | – | – | – | EC50 ([1]; inhibition of proliferation): 954 nM; EC50 [2, 5]: 462 nM; EC50 ([3]; inhibition of proliferation): 1140 nM; EC50 ([4]; inhibition of proliferation): 1070 nM
CC(C)OC(=O)Nc1cnc2nc(-c3cc(NC(=O)c4cocn4)ccc3Cl)cn2c1 [Compound 43] | 409 nM | 474 nM | 782 nM | 3910 nM | –
CC(C)OC(=O)Nc1cnc2nc(-c3cc(NC(=O)c4ccc(Cl)o4)ccc3Cl)cn2c1 [Compound 44] | 47 nM | 39 nM | 121 nM | 193 nM | –
Cc1nc(C)c(C(=O)Nc2ccc(Cl)c(-c3cn4cc(NC(=O)OC(C)C)cnc4n3)c2)o1 [Compound 45] | 400 nM | 522 nM | 226 nM | 452 nM | –
Cc1nc(C(=O)Nc2ccc(Cl)c(-c3cn4cc(NC(=O)OC(C)C)cnc4n3)c2)c(C)o1 [Compound 46] | 262 nM | 3010 nM | 1390 nM | 4990 nM | –
Cc1ncc(C(=O)Nc2ccc(Cl)c(-c3cn4cc(NC(=O)OC(C)C)cnc4n3)c2)o1 [Compound 47] | 442 nM | 128 nM | 77 nM | 220 nM | –
CC(C)OC(=O)Nc1cnc2nc(-c3cc(NC(=O)c4cn5cccnc5n4)ccc3Cl)cn2c1 [Compound 49] | > 20000 nM | > 50000 nM | > 25000 nM | > 50000 nM | –
CC(=O)Nc1ncc(C(=O)Nc2ccc(Cl)c(-c3cn4cc(NC(=O)OC(C)C)cnc4n3)c2)s1 [Compound 50] | > 20000 nM | > 50000 nM | > 25000 nM | > 50000 nM | –
CC(C)OC(=O)Nc1cnc2nc(-c3cc(NC(=O)c4cnco4)ccc3Cl)cn2c1 [Compound 52] | 1280 nM | 571 nM | 261 nM | 2740 nM | –
Cc1ncoc1C(=O)Nc1ccc(Cl)c(-c2cn3cc(NC(=O)OC(C)C)cnc3n2)c1 [Compound 53] | 572 nM | 386 nM | 448 nM | 6270 nM | –
CC(C)OC(=O)Nc1cnc2nc(-c3cc(NC(=O)c4cnc(C5CC5)o4)ccc3Cl)cn2c1 [Compound 60] | 444 nM | 1540 nM | 727 nM | 1100 nM | –
CC(C)OC(=O)Nc1cnc2nc(-c3cc(NC(=O)c4ccc(Cl)s4)ccc3F)cn2c1 [Compound 66] | 444 nM | 1840 nM | 2810 nM | 16100 nM | –
Cc1nc(C)c(C(=O)Nc2ccc(F)c(-c3cn4cc(NC(=O)OC(C)C)cnc4n3)c2)s1 [Compound 68] | 3600 nM | 14200 nM | 14200 nM | 39200 nM | –
Cc1nc(C(=O)Nc2ccc(F)c(-c3cn4cc(NC(=O)OC(C)C)cnc4n3)c2)c(C(F)(F)F)o1 [Compound 69] | 403 nM | 3120 nM | 1400 nM | 3300 nM | –
CC(C)OC(=O)Nc1cnc2nc(-c3cc(NC(=O)c4ccc(Br)o4)ccc3F)cn2c1 [Compound 70] | 72 nM | 54 nM | 136 nM | 190 nM | –
CC(C)OC(=O)Nc1cnc2nc(-c3cc(NC(=O)c4ccnn4C)ccc3F)cn2c1 [Compound 74] | 608 nM | 490 nM | 608 nM | 3890 nM | –
CC(C)OC(=O)Nc1cnc2nc(-c3cc(NC(=O)c4cccs4)ccc3F)cn2c1 [Compound 75] | 150 nM | 482 nM | 581 nM | > 6020 nM | –
Cc1ncoc1C(=O)Nc1ccc(F)c(-c2cn3cc(NC(=O)OC(C)C)cnc3n2)c1 [Compound 76] | 636 nM | 348 nM | 305 nM | 4220 nM | –

Compound | EC50 [4, 6] | EC50 [1, 7] | EC50 [2, 8] | EC50 [3, 9] | further results
CC(C)OC(=O)Nc1cnc2nc(-c3cc(NC(=O)c4cnco4)ccc3F)cn2c1 [Compound 78] | 1910 nM | 553 nM | 307 nM | 6410 nM | –
Cc1cc(C(=O)Nc2ccc(F)c(-c3cn4cc(NC(=O)OC(C)C)cnc4n3)c2)[nH]n1 [Compound 79] | > 20000 nM | 7350 nM | 7280 nM | > 50000 nM | –
Cc1ccc(C(=O)Nc2ccc(F)c(-c3cn4cc(NC(=O)OC(C)C)cnc4n3)c2)o1 [Compound 80] | 63 nM | 59 nM | 89 nM | 244 nM | –
CC(C)OC(=O)Nc1cnc2nc(-c3cc(NC(=O)c4c[nH]cn4)ccc3F)cn2c1 [Compound 81] | > 20000 nM | > 50000 nM | > 25000 nM | > 50000 nM | –
CC(C)OC(=O)Nc1cnc2nc(-c3cc(NC(=O)c4ccc(Br)s4)ccc3F)cn2c1 [Compound 82] | 1210 nM | 4200 nM | 4990 nM | 3900 nM | –
CC(=O)c1ccc(C(=O)Nc2ccc(F)c(-c3cn4cc(NC(=O)OC(C)C)cnc4n3)c2)s1 [Compound 83] | 7040 nM | > 50000 nM | 15400 nM | 6810 nM | –
CC(C)OC(=O)Nc1cnc2nc(-c3cc(NC(=O)[C@H](N)c4ccccc4)ccc3F)cn2c1 [Compound 85] | 10800 nM | 32700 nM | > 25000 nM | 15200 nM | –
COCCN1CCC(c2cnc3nc(-c4cc(NC(=O)c5oc(C)nc5C)ccc4F)cn3c2)CC1 [Compound 540] | – | – | – | – | EC50 ([1]; Trypanosoma brucei): 868 nM; EC50 [2, 10]: > 25000 nM; EC50 [4, 11]: 1330 nM
Cc1nc(C)c(C(=O)Nc2ccc(F)c(-c3cn4cc(C5CCN(CCO)CC5)cnc4n3)c2)o1 [Compound 541] | – | – | – | – | EC50 ([1]; Trypanosoma brucei): 9920 nM; EC50 [2, 10]: > 25000 nM; EC50 [4, 11]: > 20000 nM
Cc1nc(C)c(C(=O)Nc2ccc(F)c(-c3cn4cc(C5CCN(C(=O)CO)CC5)cnc4n3)c2)o1 [Compound 542, N-(4-fluoro-3-(6-(1-(2-hydroxyacetyl)piperidin-4-yl)imidazo[1,2-a]pyrimidin-2-yl)phenyl)-2,4-dimethyloxazole-5-carboxamide] | – | – | – | – | EC50 ([1]; Trypanosoma brucei): 467 nM; EC50 [2, 10]: 450 nM; EC50 [4, 11]: 8060 nM
O=C(Nc1ccc(F)c(-c2cn3cc(NC(=O)C(F)(F)F)cnc3n2)c1)N1CCCC1 [Compound 566, N-(4-fluoro-3-(6-(2,2,2-trifluoroacetamido)imidazo[1,2-a]pyrimidin-2-yl)phenyl)pyrrolidine-1-carboxamide] | – | – | – | – | EC50 ([1]; Trypanosoma brucei): 212 nM; EC50 [2, 10]: 1140 nM; EC50 [3, 12]: 12000 nM
CC(=O)Nc1ccc(F)c(-c2cn3cc(NC(C)=O)cnc3n2)c1 [Compound 567, N-(2-(5-acetamido-2-fluorophenyl)imidazo[1,2-a]pyrimidin-6-yl)acetamide] | – | – | – | – | EC50 ([1]; Trypanosoma brucei): 12100 nM; EC50 [2, 10]: > 25000 nM; EC50 [3, 12]: > 50000 nM
Cc1nc(C)c(C(=O)Nc2ccc(F)c(-c3cn4cc(CC(F)(F)F)cnc4n3)c2)o1 [Compound 575, N-(4-fluoro-3-(6-(2,2,2-trifluoroethyl)imidazo[1,2-a]pyrimidin-2-yl)phenyl)-2,4-dimethyloxazole-5-carboxamide] | – | – | – | – | EC50 ([1]; Trypanosoma brucei): 22 nM; EC50 [2, 10]: 78 nM; EC50 [4, 11]: 52 nM
CC(C)(C)OC(=O)Nc1cnc2nc(-c3cccc(NC(=O)N4CCCC4)c3F)cn2c1 [Compound 579] | – | – | – | – | EC50 ([1]; Trypanosoma brucei): 36200 nM; EC50 [2, 10]: > 25000 nM; EC50 [3, 12]: > 50000 nM
CC(C)c1cnc2nc(-c3cc(N)ccc3F)cn2c1 [Compound 584, 4-fluoro-3-(6-isopropylimidazo[1,2-a]pyrimidin-2-yl)aniline] | – | – | – | – | EC50 ([1]; Trypanosoma brucei): > 50000 nM; EC50 [2, 10]: > 25000 nM; EC50 [3, 12]: 2270 nM
CN(CC(F)(F)F)C(=O)Nc1ccc(F)c(-c2cn3cc(Br)cnc3n2)c1 [Compound 586, 3-(3-(6-bromoimidazo[1,2-a]pyrimidin-2-yl)-4-fluorophenyl)-1-methyl-1-(2,2,2-trifluoroethyl)urea] | – | – | – | – | EC50 ([1]; Trypanosoma brucei): 59 nM; EC50 [2, 10]: 552 nM; EC50 [3, 12]: 4000 nM
CC(C)Nc1cnc2nc(-c3cc(NC(=O)N4CC(F)C4)ccc3F)cn2c1 [Compound 592] | – | – | – | – | EC50 ([1]; Trypanosoma brucei): 53 nM; EC50 [2, 10]: 145 nM; EC50 [3, 12]: 428 nM
CN(C)c1cnc2nc(-c3cc(NC(=O)N4CC(F)C4)ccc3F)cn2c1 [Compound 593] | – | – | – | – | EC50 ([1]; Trypanosoma brucei): 54 nM; EC50 [2, 10]: 255 nM; EC50 [3, 12]: 160 nM
